Source: patent US12404284B2, “Spirocyclic inhibitors of hepatitis B virus” (Ospedale San Raffaele S.r.l., priority 2020, dated 2025)

Legend:
HBV [1] = conditions: Phase 1b clinical studies; cited from earlier work
HBV [2] = experiment: Anti-HBV activity in vitro: extracellular HBV DNA by direct qPCR in HepAD38 cells; assay type: cell-based; conditions: Hepatitis B virus, doxycycline-free medium, 96 hours, read-out: HBV inh EC50
Source text: HepAD38 cell line (Ladner et al., Antimicrob Agents Chemother, 1997, 41, 1715-20) was used for HBV inhibition assays. HepAD38 is a subclone, derived from hepatoblastoma cell line HepG2 (ATCC® Number: HB-8065™), that expresses HBV genome under the transcriptional control of a tetracycline-responsive promoter in a TET-OFF system: addition of doxycycline, an antibiotic belonging to the class of tetracycline, suppresses HBV replication, while its removal switches on the process allowing HBV viral particles release in the cell supernatant. […]
Anti-HBV activity in vitro HBV inhibition activity in vitro was performed in 96 multiwell plates. […] From the dose-response curves, half maximal effective concentration (EC50) could be calculated (see also below). […]
Plates were then incubated 96 hours at 37° C. and then subjected to cell viability assays and extracellular HBV quantification, in order to evaluate both the cytotoxic potential and the anti-viral activity of compounds. Cytotoxicity was assessed by a commercial fluorescence assay that measures the metabolic activity of cells, directly related to cell viability (Cell Titer Blue, Promega). Anti-HBV activity was evaluated by quantification of extracellular HBV DNA with direct qPCR. […]

| Structure (SMILES) | reduction in HBV DNA (HBV [1]) | reduction in serum HBV RNA (HBV [1]) | EC50 (HBV [2]) [nM] |
| --- | --- | --- | --- |
| O=C(Nc1cc(F)c(F)c(F)c1)c1ccc(F)c(S(=O)(=O)N2CCC(O)CC2)c1 [NVR3-778] | significant reduction | significant reduction |  |
| C[C@@H](NC(=O)C(=O)N1CCC2(CC1)COc1c(c(Cl)n(C)c1C(=O)Nc1ccc(F)c(C(F)F)c1)S(=O)(=O)N2)C(F)(F)F [Example E35, (R)-8′-chloro-N-(3-(difluoromethyl)-4-fluorophenyl)-7′-methyl-1-(2-oxo-2-((1,1,1-trifluoropropan-2-yl)amino)acetyl)-2′H,4′H,7′H-spiro[piperidine-4,3′-pyrrolo[3,4-b][1,4,5]oxathiazepine]-6′-carboxamide 1′,1′-dioxide] |  |  | < 500 |
| Cn1cc2c(c1C(=O)Nc1ccc(F)c(Cl)c1)OC[C@@]1(CCN(C(=O)C(=O)NCC(F)(F)F)C1)NS2(=O)=O [Example E25, (S)—N-(3-chloro-4-fluorophenyl)-7′-methyl-1-(2-oxo-2-((2,2,2-trifluoroethyl)amino)acetyl)-2′H,4′H,7′H-spiro[pyrrolidine-3,3′-pyrrolo[3,4-b][1,4,5]oxathiazepine]-6′-carboxamide 1′,1′-dioxide] |  |  | < 500 |
